Assay results as given in PMC10179080, “In Vivo and In Vitro Characterization of Close Analogs of Compound KA-11, a New Antiseizure Drug Candidate” (International Journal of Molecular Sciences, 2023).

Key:
[1] = tested on: Calcium Cav1.2 channels (dihydropyridine site, antagonist radioligand); test: Radioligand binding, Cav1.2 dihydropyridine site; set-up: species or system rat
Experimental: Dysfunction of both sodium and calcium ion channels is known to be one of the crucial reasons behind the pathogenesis of seizures. Consequently, these ion channels are molecular targets for several clinically important ASDs such as lacosamide, lamotrigine, carbamazepine, oxcarbazepine and compounds currently under preclinical and clinical studies. Thus, for KA-228 and KA-232, we tested herein their binding profile toward the aforementioned ion channels at concentrations of 10 and 100 µM (Table 3). […] Apart from in vitro studies focused on explaining the mechanism of action, KA-232 was additionally tested for its interaction with the potassium channel (hERG) which is recognized as one of the most important ‘off-targets’ responsible for harmful arrhythmogenic activity. Thus, the interaction of potential drug candidates with hERG must be excluded at an early stage of development.
Binding studies were carried out commercially in Eurofins Laboratories (Poitiers, France or New Taipei City, Taiwan).

[2] = Metabolic stability in human liver microsomes; assay type: in vitro ADME; conditions: pH 7.4, 120 min, TRIS buffer pH 7.4, 37 °C, read-out: Metabolic stability (% remaining after incubation with HLMs)
Experimental: The assays and protocols used for evaluating the KA-232 ADME-Tox parameters were similar to those described previously for compound KA-11 [6].
Figure S3 The MetaSite 6.0.1. software prediction of the most probably sites of KA-232
metabolism. The darker red color - the higher probability to be involved in the metabolism
pathway. The blue circle marked the site of compound with the highest probability of metabolic
Figure S4 UPLC spectra after 120 min incubation of compound KA-232 with human liver
microsomes in TRIS buffer pH=7.4 at 37 °C.
reaction mixture. Three metabolites M1, M2 and M3 were identified as well as the products
(m/z= 382.18, m/z=445.23) of compound degradation in physiological buffers (see also Figure […]

[3] = tested on: seizure susceptibility in mice; test: Timed ivPTZ seizure threshold test; assay type: in vivo
Experimental: (§1) The experiments were conducted on adult male albino Swiss mice weighing 22–26 g. The animals were kept in colony cages under standardized laboratory conditions: natural light–dark cycle 12/12 h, temperature 20–24 °C, air humidity 45–65% and free access to tap water and food (chow pellets). After 7 days of adaptation to laboratory conditions, the animals were randomly assigned to experimental groups consisting of 8 mice. The experimental procedures described herein were approved by the Local Ethics Committee in Lublin, Poland (approval numbers: 71/2020 and 13/2021), and were conducted in accordance with EU Directive 2010/63/EU for animal experiments. All efforts were made to minimize animal suffering and to use only the number of animals necessary to produce reliable scientific data according to the 3Rs rule.
The timed ivPTZ seizure threshold test was carried out according to the method described by Socała et al.. KA-228 and KA-232 were suspended in a 1% solution of Tween 80 and administered i.p. 30 min before the test. In the experiment with KA-232, two separate control groups were used because the effects of KA-232 at a dose of 50 and 100 mg/kg were determined on different days.
(§2) The ED50 or TD50 values for tested substances in the acute animal models of seizures were calculated using the computer log-probit analysis. Subsequently, the ED50 and TD50 values (±SEM) were statistically analyzed using one-way analysis of variance (ANOVA) followed by the post hoc Dunnett’s test for multiple comparisons. Differences among values were considered statistically significant if p < 0.05. GraphPad Prism version 8 for Windows (GraphPad Software, San Diego, CA, USA) was used as a statistical software program. The results obtained from the acute ivPTZ test and grip strength test were evaluated by a Student’s t test. Fisher’s exact probability test was used to analyze protection from tonic forelimb and hindlimb extension in the ivPTZ test.
Figure 7 Effects of KA-11, KA-228 and KA-232 on the threshold for the first myoclonic twitch (A), generalized clonus (B) and forelimb tonus (C) in the ivPTZ test in mice. KA-228 and KA-232 were administered i.p., 30 min before seizure induction. Control animals received vehicle. Data are presented as means ± SD (mg/kg PTZ; n = 9–14 animals; the n value varies between groups because some animals were excluded from the study due to unsuccessful catheterization of the vein). The statistical significance for KA-228 and KA-232 was evaluated by a Student’s t test. Data for KA-11 were used from Socała et al. and re-analyzed using one-way ANOVA followed by Dunnett’s post hoc test. * p < 0.05, ** p < 0.01, *** p < 0.001, **** p < 0.0001 vs. the vehicle-treated group (GraphPad Prism 8).

[4] = tested on: 6-Hz-induced psychomotor seizures in mice; test: 6 Hz (32 mA) seizure model; assay type: in vivo
Experimental: as §1
(§3) All substances (except PTZ and tetracaine hydrochloride dissolved in water for injections) were suspended in a 1% solution of Tween 80 (Sigma-Aldrich, Saint Louis, MO, USA) in water for injections (Baxter, Warszawa, Poland) or 0.9% NaCl. All drugs were injected intraperitoneally (i.p.) 30 min before all seizure models with 1 mL syringes as a single injection, in a volume of 10 mL/kg. The pretreatment time (30 min) before testing for KA-228 and KA-232 was chosen based on the time to peak of maximum anticonvulsant activity of KA-11 from our previous studies.
The 6-Hz-induced psychomotor seizures in mice were evoked by current (6 Hz, 0.2 ms rectangular pulse width, 32 mA, 3 s duration) generated by an S48 Square Pulse Stimulator and CCU1 Constant Current Unit (Grass Technologies, West Warwick, RI, USA). The animals were administered with increasing doses of KA-228 and KA-232, and the anticonvulsant activity of each drug was evaluated as the ED50. This experimental procedure has been described in detail in our previous studies.
as §2

[5] = tested on: tonic–clonic seizures in mice; test: Maximal electroshock seizure (MES) test; assay type: in vivo
Experimental: as §1, §3
The tonic–clonic seizures in mice were evoked by an electric stimulus (an alternating current 25 mA, 50 Hz, maximum output voltage 500 V, 0.2 s) generated by a rodent shocker (Hugo Sachs Elektronik, Freiburg, Germany) and delivered via ear-clip electrodes. […] This experimental procedure has been described in detail in our previous studies.
as §2

[6] = molecular target: 5-HT1A (agonist radioligand) (Homo sapiens, UniProt P08908); test: Radioligand binding, 5-HT1A
[7] = 50 mg/kg i.p., 30 min before ivPTZ

Sequence of 5-HT1A (agonist radioligand) (P08908 whole entry): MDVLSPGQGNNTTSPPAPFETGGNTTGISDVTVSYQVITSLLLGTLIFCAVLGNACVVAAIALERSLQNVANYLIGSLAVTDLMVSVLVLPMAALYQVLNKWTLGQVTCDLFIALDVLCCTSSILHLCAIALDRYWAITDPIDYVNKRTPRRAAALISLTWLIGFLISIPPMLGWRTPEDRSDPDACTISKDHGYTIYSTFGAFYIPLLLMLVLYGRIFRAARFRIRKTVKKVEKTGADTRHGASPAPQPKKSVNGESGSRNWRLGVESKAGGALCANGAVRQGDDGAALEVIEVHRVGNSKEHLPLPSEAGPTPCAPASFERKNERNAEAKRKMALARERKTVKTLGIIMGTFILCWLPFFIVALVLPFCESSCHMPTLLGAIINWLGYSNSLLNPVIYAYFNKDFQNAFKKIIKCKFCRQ

Q: Which “% Inhibition of Control Specific Binding” value ([1]; 10 µM) does the source give for `CC(C(=O)N1CCN(c2cccc(C(F)(F)F)c2)CC1)N1C(=O)CC(N(C)C)C1=O.Cl` (centres unmarked) [KA-232, 3-(Dimethylamino)-1-(1-oxo-1-(4-(3-(trifluoromethyl)phenyl)piperazin-1-yl)propan-2-yl)pyrrolidine-2,5-dione hydrochloride] here?
A: The value was −6.3%.

Q: What about the “% Inhibition of Control Specific Binding” value ([1]; 100 µM) of the same compound?
A: Its value is 18.5%.

Q: And the remaining at 2 h [2]?
A: Its remaining at 2 h is about 73%.

Q: And the “effect on threshold for forelimb tonus” value [3, 7]?
A: The value was “did not significantly affect”.

Q: What about the “effect on threshold for generalized clonus” value [3, 7] of the same compound?
A: Its value is “did not significantly affect”.

Q: And the “effect on threshold for the first myoclonic twitch” value [3, 7]?
A: Its value is “did not significantly affect”.

Q: What about the “mice in which hindlimb tonus did not occur” value ([3]; 50 mg/kg i.p., p < 0.01 vs. control) of the same compound?
A: The value was 5 out of 9.

Q: What about the “effect on threshold for clonic seizures” value ([3]; 100 mg/kg i.p., p < 0.0001) of the same compound?
A: The value was “slightly raised”.

Q: What about the “effect on threshold for myoclonic seizures” value ([3]; 100 mg/kg i.p., p < 0.001) of the same compound?
A: The value was “slightly raised”.

Q: What about the “mice in which forelimb tonus was completely abolished” value ([3]; 100 mg/kg i.p., p < 0.01 vs. control) of the same compound?
A: Its value is 7 out of 11.

Q: And the ED50 ([4]; Mus musculus, ip, 30 min before test, read-out: ED50 6 Hz ± SD)?
A: The ED50 was 26.5 ± 33.5 mg/kg.

Q: And the “TI (TD50/ED50), 6 Hz” value ([4]; i.p.)?
A: Its value is 6.14.

Q: What about the ED50 ([5]; Mus musculus, ip, 30 min before test, read-out: ED50 MES ± SD) of the same compound?
A: The ED50 was 61.8 ± 26.9 mg/kg.

Q: And the “TI (TD50/ED50), MES” value ([5]; i.p.)?
A: The value was 2.63.

Q: What about the melting point of the same compound?
A: Its melting point is 141.4 to 143.5 °C.

Q: What about the “% Inhibition of Control Specific Binding” value ([6]; 10 µM) of the same compound?
A: The value was “did not interact”.

Q: What about the inhibition at 10 µM ([6]; read-out: % Inhibition of Control Specific Binding) of the same compound?
A: The inhibition at 10 µM was 9.6%.
